The values that follow come from ChEMBL document CHEMBL1135979, “Novel sigma receptor ligands. Part 2. SAR of spiro[[2]benzopyran-1,4'-piperidines] and spiro[[2]benzofuran-1,4'-piperidines] with carbon substituents in position 3” (J Med Chem, 2002).

SMILES strings stand for the structures.

The species entered for one test is Rattus norvegicus. As to the kind of experiment: Ratio of binding affinity towards Sigma opioid receptor type 1 versus Sigma opioid receptor type 2.
For `CCOC(=O)C1Cc2ccccc2C2(CCN(Cc3ccccc3)CC2)O1` (stereo not drawn), the Selectivity was found to be 1130. On the same count and under the same terms, then `OCC1Cc2ccccc2C2(CCN(Cc3ccccc3)CC2)O1` (stereo not drawn), with 292; and `CCOC(=O)CC1Cc2ccccc2C2(CCN(Cc3ccccc3)CC2)O1` (stereo not drawn), with 124.

Turning to `N#CCC1Cc2ccccc2C2(CCN(Cc3ccccc3)CC2)O1` (stereo not drawn), the Selectivity is 295. In the case of `OC1Cc2ccccc2C2(CCN(Cc3ccccc3)CC2)O1` (stereo not drawn), the Selectivity was 236.

On to `CCOC(=O)CC1OC2(CCN(Cc3ccccc3)CC2)c2ccccc21` (stereo not drawn), for which the Selectivity stood at 449. Same read-out and setting: then `O=CCC1Cc2ccccc2C2(CCN(Cc3ccccc3)CC2)O1` (stereo not drawn), with 180. Still for that read-out and setting: as for `CCOC(=O)C1OC2(CCN(Cc3ccccc3)CC2)c2ccccc21` (stereo not drawn), the figure is 796; as for `OCCC1Cc2ccccc2C2(CCN(Cc3ccccc3)CC2)O1` (stereo not drawn), 668; as for `N#CCC1OC2(CCN(Cc3ccccc3)CC2)c2ccccc21` (stereo not drawn), 768. Still for that read-out and setting: as for `CNCCC1Cc2ccccc2C2(CCN(Cc3ccccc3)CC2)O1` (stereo not drawn), the figure is 29.

The next test addresses Sigma non-opioid intracellular receptor 1 (Cavia porcellus). As to the kind of experiment: Ability to displace [3H](+)-pentazocine from Sigma opioid receptor type 1 of guinea pig brain.
One may read the Ki as a measure of affinity in units of concentration, obtained from inhibition or displacement. The molecule `OC1Cc2ccccc2C2(CCN(Cc3ccccc3)CC2)O1` (stereo not drawn) registered a Ki of 2.17 nM.

A further test deals with Sigma-2 receptor (Rattus norvegicus). Kind of test: Ability to displace [3H]ditolylguanidine in the presence of 100 nM (+)-pentazocine from Sigma opioid receptor type 2 of rat liver.
For `OC1Cc2ccccc2C2(CCN(Cc3ccccc3)CC2)O1` (stereo not drawn), the Ki is 513 nM.
